Measured values published in US20130178653A1, “NOVEL PRECURSOR OF RADIOLABELLED CHOLINE ANALOG COMPOUNDS” (IMPERIAL COLLEGE, priority 2010, published 2013).
Read-outs that look alike come from different tables or passages of the source.

Legend:
HCT116 tumors = assay: Effect of PD0325901 treatment in HCT116 tumor bearing mice ([^18F]D4-FCH-PET, tumor size); assay type: in vivo
Description: Dynamic [^18F]FCH and [^18F]D4-FCH imaging scans were carried out on a dedicated small animal PET scanner, quad-HIDAC (Oxford Positron Systems). The features of this instrument have been described previously (Barthel, H., et al., Cancer Res 2003; 63(13):3791-8). For scanning the tail veins, vehicle- or drug-treated mice were cannulated after induction of anesthesia (isofluorane/O2/N2O). The animals were placed within a thermostatically controlled jig (calibrated to provide a rectal temperature of ˜37° C.) and positioned prone in the scanner. [^18F]FCH or [^18F]D4-FCH (2.96-3.7 MBq) was injected via the tail vein cannula and scanning commenced. Dynamic scans were acquired in list mode format over a 60 min period as reported previously (Leyton, J., et al., Cancer Research 2006; 66(15):7621-9). The acquired data were sorted into 0.5 mm sinogram bins and 19 time frames (0.5×0.5×0.5 mm voxels; 4×15, 4×60, and 11×300 s) for image reconstruction, which was done by filtered back-projection using a two-dimensional Hamming filter (cutoff 0.6). The image data sets were visualized using the Analyze software (version 6.0; Biomedical Imaging Resource, Mayo Clinic). Cumulative images of 30 to 60 min dynamic data were used for visualization of radiotracer uptake and to draw regions of interest. Regions of interest were defined manually on five adjacent tumor regions (each 0.5 mm thickness). Dynamic data from these slices were averaged for each tissue (liver, kidney, muscle, urine, and tumor) and at each of the 19 time points to obtain time versus radioactivity curves. Corresponding whole body time versus radioactivity curves representing injected radioactivity were obtained by adding together radioactivity in all 200×160×160 reconstructed voxels. Tumor radioactivity was normalized to whole-body radioactivity and expressed as percent injected dose per voxel (% ID/vox). The normalized uptake of radiotracer at 60 min (% ID/vox60) was used for subsequent comparisons. […] The area under the curve was calculated as the integral of % ID/vox from 0 to 60 min

HCT116 cells = assay: Effect of PD0325901 on [^18F]D4-FCH metabolism and CHKA expression in HCT116 cells in culture; assay type: cell-based, human
Description: HCT116 cells were grown in T150 flasks in triplicate until they were 70% confluent and then treated with vehicle (1% DMSO in growth medium) or 1 μmol/L PD0325901 in vehicle for 24 h. Cells were pulsed for 1 h with 1.1 MBq of either [^18F]D4-FCH or [^18F]FCH. The cells were washed three times in ice-cold phosphate buffered saline (PBS), scraped into 5 mL PBS, and centrifuged at 500×g for 3 min and then resuspended in 2 mL ice-cold methanol for HPLC analysis as described above for tissue samples. […] Briefly, HCT116 cells were grown in 100 mm dishes in triplicate and incubated with 5.0 MBq [^18F]FCH for 60 min at 37° C. to form the putative [^18F]FCH-phosphate. The cells were washed with 5 mL ice-cold PBS twice and then scraped and centrifuged at 750×g (4° C., 3 min) in 5 mL PBS. Cells were homogenized in 1 mL of 5 mmol/L Tris-HCl (pH 7.4) containing 50% (v/v) glycerol, 0.5 mmol/L MgCl2, and 0.5 mmol/L ZnCl2 and incubated with 10 units bacterial (type III) alkaline phosphatase (Sigma) at 37° C. in a shaking water bath for 30 min to dephosphorylate the [^18F]FCH-phosphate. The reaction was terminated by adding ice-cold methanol. Samples were processed as per plasma above and analyzed by radio-HPLC. Control experiments were done without alkaline phosphatase. […]

choline kinase A (CHKA) = assay: Choline kinase A expression in HCT116 tumors by western blotting; assay type: in vivo, mice; conditions: day 10, 25 mg/kg daily orally
Description: HCT116 tumors from mice that were injected with PD0325901 (25 mg/kg daily for 10 days, orally) or vehicle were analyzed for CHKA expression by western blotting. β-actin was used as the loading control. (b) Summary densitometer measurements for CHKA expression expressed as a ratio to β-actin. The results are the mean ratios±SE; n=3, * P=0.05.
Size-matched HCT116 tumor bearing mice were randomized to receive daily treatment by oral gavage of vehicle (0.5% hydroxypropyl methylcellulose+0.2% Tween 80) or 25 mg/kg (0.005 mL/g mouse) of the mitogenic extracellular kinase inhibitor, PD0325901, prepared in vehicle. [^18F]D4-FCH-PET scanning was done after 10 daily treatments with the last dose administered 1 h before scanning. […] The results are illustrated in FIGS. 18 and 19.
To understand further the mechanisms regulating [^18F]D4-FCH uptake with drug treatment, changes in CHKA expression in PD0325901 and vehicle-treated tumors excised after PET scanning were assessed.

[1] = tested on: HCT116 human colon xenografts; conditions: mouse, in vivo
Description: Time course biodistribution was carried out for [^18F]fluoromethylcholine, [^18F]fluoromethyl-[1-^2H2]choline and [^18F]fluoromethyl-[1,2-^2H4]choline in nude mice bearing HCT116 human colon xenografts.
Human colon (HCT116) tumors were grown in […] (Harlan, Bicester, United Kingdom) as previously reported (Leyton, J., et al., Cancer Research 2005; 65(10):4202-10). Tumor dimensions were measured continuously using a caliper and tumor volumes were calculated by the equation: volume=(π/6)×a×b×c, where a, b, and c represent three orthogonal axes of the tumor. Mice were used when their tumors reached approximately 100 mm^3. [^18F]Fluoromethylcholine, [^18F]fluoromethyl-[1-^2H2]choline and [^18F]fluoromethyl-[1,2-^2H4]choline (˜3.7 MBq) were each injected via the tail vein into awake untreated tumor bearing mice. The mice were sacrificed at pre-determined time points (2, 30 and 60 min) after radiotracer injection under terminal anesthesia to obtain blood, plasma, tumor, heart, lung, liver, kidney and muscle. Tissue radioactivity was determined on a gamma counter (Cobra II Auto-Gamma counter, Packard Biosciences Co, Pangbourne, UK) and decay corrected. Data were expressed as percent injected dose per gram of tissue.

[2] = mouse, in vivo; for form of radioactivity in tumors: iv
Description: Metabolite analysis of tissues including liver, kidney and tumor by HPLC was also accomplished. […] Choline and its metabolites lack any UV chromophore to permit presentation of chromatograms of the cold unlabelled compound simultaneously with the radioactivity chromatograms.
Liver, kidney, and tumor samples were obtained at 30 min. All samples were snap-frozen in liquid nitrogen. […] To ˜0.2 mL plasma was added ice-cold methanol (1.5 mL). The mixture was then centrifuged (3 min, 15,493×g, 4jC). […] Liver, kidney, and tumor samples were homogenized in ice-cold methanol (1.5 mL) using an IKA Ultra-Turrax T-25 homogenizer and subsequently treated as per plasma samples (above). All samples were analyzed by radio-HPLC on an Agilent 1100 series HPLC system (Agilent Technologies) equipped with a γ-RAM Model 3 γ-detector (IN/US Systems) and Laura 3 software (Lablogic). The stationary phase comprised a Waters μBondapak C18 reverse-phase column (300×7.8 mm) (Waters, Milford, Mass., USA). Samples were analyzed using a mobile phase comprising solvent A (acetonitrile/water/ethanol/acetic acid/1.0 mol/L ammonium acetate/0.1 mol/L sodium phosphate; 800/127/68/2/3/10) and solvent B (acetonitrile/water/ethanol/acetic acid/1.0 mol/L ammonium acetate/0.1 mol/L sodiumphosphate; 400/400/68/44/88/10) with a gradient of 0% B for 6 min, then 0>100% B in 10 min, 100% B for 0.5 min, 100>0% B in 1.5 min then 0% B for 2 min, delivered at a flow rate of 3 mL/min

[3] = tested on: human melanoma SKMEL-28 xenografts; conditions: mouse, in vivo
Description: (§1) Dynamic [^18F]FCH and [^18F]D4-FCH imaging scans were carried out on a dedicated small animal PET scanner, quad-HIDAC (Oxford Positron Systems). The features of this instrument have been described previously (Barthel, H., et al., Cancer Res 2003; 63(13):3791-8). For scanning the tail veins, vehicle- or drug-treated mice were cannulated after induction of anesthesia (isofluorane/O2/N2O). The animals were placed within a thermostatically controlled jig (calibrated to provide a rectal temperature of ˜37° C.) and positioned prone in the scanner. [^18F]FCH or [^18F]D4-FCH (2.96-3.7 MBq) was injected via the tail vein cannula and scanning commenced. Dynamic scans were acquired in list mode format over a 60 min period as reported previously (Leyton, J., et al., Cancer Research 2006; 66(15):7621-9). The acquired data were sorted into 0.5 mm sinogram bins and 19 time frames (0.5×0.5×0.5 mm voxels; 4×15, 4×60, and 11×300 s) for image reconstruction, which was done by filtered back-projection using a two-dimensional Hamming filter (cutoff 0.6). The image data sets were visualized using the Analyze software (version 6.0; Biomedical Imaging Resource, Mayo Clinic). Cumulative images of 30 to 60 min dynamic data were used for visualization of radiotracer uptake and to draw regions of interest. Regions of interest were defined manually on five adjacent tumor regions (each 0.5 mm thickness). Dynamic data from these slices were averaged for each tissue (liver, kidney, muscle, urine, and tumor) and at each of the 19 time points to obtain time versus radioactivity curves. Corresponding whole body time versus radioactivity curves representing injected radioactivity were obtained by adding together radioactivity in all 200×160×160 reconstructed voxels. Tumor radioactivity was normalized to whole-body radioactivity and expressed as percent injected dose per voxel (% ID/vox). The normalized uptake of radiotracer at 60 min (% ID/vox60) was used for subsequent comparisons. The average of the normalized maximum voxel intensity across five slices of tumor % IDvox60max was also use for comparison to account for tumor heterogeneity and existence of necrotic regions in tumor. The area under the curve was calculated as the integral of % ID/vox from 0 to 60 min

[4] = for parent compound still present after potassium permanganate treatment: 1 hour post-treatment, KMnO4, Na2CO3, H2O, rt, radio-HPLC
[5] = mouse, in vivo
choline oxidase [6] = assay: Enzymatic oxidation study using choline oxidase; conditions: 60 minute time point, room temperature, pH 7
[7] = mouse, in vivo, 60 min
Description: as §1

choline oxidase [8] = conditions: 60 min, 1.76 MBq/mL, pH 7
[9] = Oxidation potential in vivo (radio-HPLC of mouse plasma after i.v. injection); conditions: 15 min after i.v. injection into mice

## O=C(NOC[C@H](O)CO)c1ccc(F)c(F)c1Nc1ccc(I)cc1F [PD0325901]
HCT116 tumors; 10 daily treatments 25 mg/kg, HCT116 tumors, PET
  [^18F]D4-FCH radiotracer retention in treated tumors: marked reduction in radiotracer retention
HCT116 tumors; after 10 days of drug treatment, HCT116 tumors
  imaging variables (% ID/vox60, % ID/vox60max, AUC) of [^18F]D4-FCH: decreased
HCT116 tumors; day 10, 25 mg/kg daily oral, HCT116 xenograft
  reduction in tumor size compared to the pretreatment group: 12.2%
HCT116 cells; 1 μmol/L for 24 h, 60-min uptake of [^18F]D4-FCH
  [^18F]D4-FCH-phosphocholine formation: significantly inhibited
HCT116 cells; exponentially growing cells
  CHKA expression in vitro: reduction of CHKA expression
Choline kinase A (CHKA)
  CHKA protein expression in tumors: significant reduction

## [2H]C([2H])(O)C([2H])([2H])[N+](C)(C)C[18F] [[^18F]D4-FCH, [^18F]fluoromethyl-[1,2-^2H4]choline]
[1]
  tumor uptake at the later time points: pronounced increase
[2]
  kidney radioactivity in the form of betaine: 20.6±6.2%
  kidney radioactivity present as phosphocholine: 60.6±3.7%
  liver radioactivity present as phosphocholine: high proportion
  unknown metabolite (possibly the aldehyde intermediate) in liver: 7.4±2.3%
  unknown metabolite in kidney: 8.8±0.2%
  form of radioactivity in tumors: mainly in the form of phosphocholine
[3]
  %IDvox60max (average of maximum pixel % ID/vox60 across 5 slices) compared to [^18F]FCH: significantly higher
  tumor area under the time versus radioactivity curve (AUC) compared to FCH: higher
[4]; 20 min
  proportion of parent compound remaining (radio-HPLC), relative to [^18F]fluoromethylcholine: greater proportion of the parent compound remaining
[4]
  parent compound still present after potassium permanganate treatment: ~80%
[5]
  percentage of parent compound in plasma compared to [^18F]FCH: consistently higher
[5]; iv
  conversion of parent tracer to betaine metabolite in plasma: 40%
Choline oxidase [6]
  parent radiotracer present (radio-HPLC distribution of choline species): 29±4%

## C[N+](C)(C[18F])CCO [[^18F]FCH, [^18F]Fluoromethylcholine]
[2]
  liver radioactivity present as phosphocholine: high proportion
  unknown metabolite (possibly the aldehyde intermediate) in liver: not found
[2]; 30 min
  kidney radioactivity in the form of betaine: 53.5±5.3%
  kidney radioactivity present as phosphocholine: 31.8±9.8%
  unknown metabolite in kidney: 3.3±0.6%
  form of radioactivity in tumors: significant levels of [^18F]FCH-betaine
[7]
  bladder (urine) radioactivity, % ID/vox60: 6.70±0.71 % ID/vox
  kidney radioactivity, % ID/vox60: 15.97±4.65 % ID/vox
  liver radioactivity, % ID/vox60: 18.75±4.28 % ID/vox
[3]; 60 min
  tumor radiotracer uptake, % ID/vox60: 5.50±0.49 % ID/vox
[4]
  parent compound still present after potassium permanganate treatment: less than 40%
Choline oxidase [8]
  parent radiotracer present (radio-HPLC distribution of choline species): 11±8%
[9]
  conversion of parent tracer to betaine metabolite in plasma: 80%
